The text below walks through data of ChEMBL document CHEMBL1151928, “Identification of Hsp70 modulators through modeling of the substrate binding domain” (Bioorg Med Chem Lett, 2009).

Calls of active or inactive are those of the source. The rule behind the calls is not given here.

Assay [1] deals with Hsp70 Ssa1p. The assay can be described thus: Activation of yeast Hsp70 Ssa1p ATP hydrolysis activity at 300 uM. The following applies: Saccharomyces cerevisiae.
The test system of assay [2] is Hsp70 Ssa1p. The experiment in a line: Activation of yeast Hsp70 Ssa1p ATP hydrolysis activity at 300 uM in presence of ALLLSAPRR peptide. The following applies: Saccharomyces cerevisiae.

On to `CCOCCCN(C(C)=O)[C@@H](CC(C)C)C(=O)N[C@@H](CC(C)C)C(=O)NCCN1CCOCC1`, for which the result with Hsp70 Ssa1p [1] and in the assay with Hsp70 Ssa1p [2] was Active.
